Measurements published in patent US12139520B2 (priority 2020, dated 2024).
Bridge positions count the residues as written; N and C are the ends. Square brackets hold non-standard residues; d marks the D form. Peptide text beside a SMILES is read from it. Hyp = O=C(O)[C@@H]1C[C@@H](O)CN1; Cit = NC(=O)NCCC[C@H](N)C(=O)O

How the values were obtained:
[1] = Physical stability of peptide analogues (Thioflavin T fibrillation); assay type: physicochemical; conditions: maximum ThT signal normalized between hAMY maximum and buffer background; 40° C., shaking, four days; pH 7 per table title
Outline: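 Peptides in 50 mM sodium acetate pH 4 or 50 mM sodium phosphate pH 7 were preincubated 1 h, mixed with 4 μM ThT, held at 40° C with 700 rpm shaking before each read. Fluorescence (ex 450/em 480 nm) every 10 min for four days; LOESS-smoothed maximum signal normalized in percent between hAMY and buffer.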

hAMY3 receptor = molecular target: T1, hAMY3 receptor (Homo sapiens, UniProt O60896+P30988); assay: cAMP assay for in vitro receptor activation, hAMY3-R; assay type: cell-based; conditions: cAMP assay, hAMY3 receptor; read-out: hAMY3R EC50
T1 sequence (P30988 25-474): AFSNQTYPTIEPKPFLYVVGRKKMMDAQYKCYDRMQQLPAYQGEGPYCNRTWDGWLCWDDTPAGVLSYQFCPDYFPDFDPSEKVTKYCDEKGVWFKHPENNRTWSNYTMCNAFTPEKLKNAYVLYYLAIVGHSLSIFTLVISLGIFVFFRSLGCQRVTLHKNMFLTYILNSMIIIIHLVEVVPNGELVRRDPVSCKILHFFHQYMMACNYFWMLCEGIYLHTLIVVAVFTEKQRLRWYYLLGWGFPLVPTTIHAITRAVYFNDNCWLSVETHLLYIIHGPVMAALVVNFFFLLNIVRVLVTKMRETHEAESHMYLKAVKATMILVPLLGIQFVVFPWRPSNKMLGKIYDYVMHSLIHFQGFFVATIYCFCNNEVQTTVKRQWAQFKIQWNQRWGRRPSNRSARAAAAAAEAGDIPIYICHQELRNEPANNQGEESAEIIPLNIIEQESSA
T1 sequence (O60896 24-148 partner): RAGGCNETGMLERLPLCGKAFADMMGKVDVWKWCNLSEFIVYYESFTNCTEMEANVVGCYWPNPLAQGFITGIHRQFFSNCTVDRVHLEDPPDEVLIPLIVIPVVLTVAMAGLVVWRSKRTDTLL
Outline: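 Monoclonal cell line stably overexpressing human AMY3 receptor, 2000 cells/well in DPBS with 0.05% casein and 0.5 mM IBMX. Stimulated 30 min at room temperature with graded compound doses, human amylin as positive control. cAMP accumulation read by TR-FRET after one hour.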

| Max ThT signal (%) [1] | EC50 (hAMY3 receptor) | Compound |
| --- | --- | --- |
| 11.700% | 24 pM | CC[C@H](C)[C@H](NC(=O)[C@H](CCC(N)=O)NC(=O)[C@H](Cc1c[nH]cn1)NC(=O)[C@H](C)NC(=O)[C@H](CC(C)C)NC(=O)[C@H](CCCNC(=N)N)NC(=O)[C@H](CCC(N)=O)NC(=O)[C@@H](NC(=O)[C@@H](NC(=O)[C@@H]1CSSC[C@H](NC(=O)CN)C(=O)N[C@@H](CCCNC(=N)N)C(=O)N[C@@H](Cc2ccccc2)C(=O)NCC(=O)N[C@@H]([C@@H](C)O)C(=O)N1)[C@@H](C)O)C(C)C)C(=O)N[C@@H](Cc1ccc(O)cc1)C(=O)N[C@@H](CCC(N)=O)C(=O)N[C@@H](Cc1ccccc1)C(=O)N[C@H](C(=O)N[C@@H](CC(=O)O)C(=O)N[C@@H](CCCCN)C(=O)N[C@@H](CC(=O)O)C(=O)N[C@@H](CCCCN)C(=O)N[C@@H](CC(=O)O)C(=O)N[C@@H](CC(N)=O)C(=O)N[C@H](C(=O)N[C@@H](C)C(=O)N1CCC[C@H]1C(=O)N[C@@H](CCCNC(=N)N)C(=O)N[C@H](C(=O)N[C@@H](CC(N)=O)C(=O)N[C@H](C(=O)N[C@@H](CO)C(=O)N1CCC[C@H]1C(=O)N[C@@H](CCC(N)=O)C(=O)NCC(=O)N[C@@H](Cc1ccc(O)cc1)C(N)=O)C(C)C)[C@@H](C)O)C(C)C)[C@@H](C)O [compound 116] (H-GCRFGTCTVQRLAHQIYQFTDKDKDNVAPRTNVSPQGY-NH2; disulfide 2-7; N-terminus assumed) |
| 7.800% | 130 pM | CC[C@H](C)[C@H](NC(=O)[C@H](CCC(N)=O)NC(=O)[C@H](Cc1c[nH]cn1)NC(=O)[C@H](C)NC(=O)[C@H](CC(C)C)NC(=O)[C@H](CCCNC(=N)N)NC(=O)[C@H](CCC(N)=O)NC(=O)[C@@H](NC(=O)[C@@H](NC(=O)[C@@H]1CSSC[C@H](NC(=O)[C@@H](N)CCCCN)C(=O)N[C@@H](CCCNC(=N)N)C(=O)N[C@@H](Cc2ccccc2)C(=O)NCC(=O)N[C@@H]([C@@H](C)O)C(=O)N1)[C@@H](C)O)C(C)C)C(=O)N[C@@H](Cc1ccc(O)cc1)C(=O)N[C@@H](CCC(N)=O)C(=O)N[C@@H](Cc1ccccc1)C(=O)N[C@H](C(=O)N[C@@H](CC(=O)O)C(=O)N[C@@H](CCCCN)C(=O)N[C@@H](CC(=O)O)C(=O)N[C@@H](CCCCN)C(=O)N[C@@H](CC(=O)O)C(=O)N[C@@H](CC(N)=O)C(=O)N[C@H](C(=O)N[C@@H](C)C(=O)N1CCC[C@H]1C(=O)N[C@@H](CCCNC(=N)N)C(=O)N[C@@H](CO)C(=O)N[C@@H](CCCCN)C(=O)N[C@H](C(=O)N[C@@H](CO)C(=O)N1CCC[C@H]1C(=O)N[C@@H](CCC(N)=O)C(=O)N[C@H](C(=O)N1C[C@H](O)C[C@H]1C(N)=O)[C@@H](C)O)[C@@H](C)CC)C(C)C)[C@@H](C)O [compound 205] (H-KCRFGTCTVQRLAHQIYQFTDKDKDNVAPRSKISPQT[Hyp]-NH2; disulfide 2-7; N-terminus assumed) |
| 1.800% | 64 pM | CC[C@H](C)[C@H](NC(=O)[C@H](CCC(N)=O)NC(=O)[C@H](Cc1c[nH]cn1)NC(=O)[C@H](C)NC(=O)[C@H](CC(C)C)NC(=O)[C@H](CCCNC(=N)N)NC(=O)[C@H](CCC(N)=O)NC(=O)[C@@H](NC(=O)[C@@H](NC(=O)[C@@H]1CSSC[C@H](NC(=O)CN)C(=O)N[C@@H](CCCNC(=N)N)C(=O)N[C@@H]([C@@H](C)O)C(=O)NCC(=O)N[C@@H]([C@@H](C)O)C(=O)N1)[C@@H](C)O)C(C)C)C(=O)N[C@@H](Cc1ccc(O)cc1)C(=O)N[C@@H](CCC(N)=O)C(=O)N[C@@H](Cc1ccccc1)C(=O)N[C@H](C(=O)N[C@@H](CC(=O)O)C(=O)N[C@@H](CCCCN)C(=O)N[C@@H](CC(=O)O)C(=O)N[C@@H](CCCCN)C(=O)N[C@@H](CC(=O)O)C(=O)N[C@@H](CC(N)=O)C(=O)N[C@H](C(=O)N[C@@H](C)C(=O)N1CCC[C@H]1C(=O)N[C@@H](CCCNC(=N)N)C(=O)N[C@H](C(=O)N[C@@H](CC(N)=O)C(=O)N[C@H](C(=O)N[C@@H](CO)C(=O)N1CCC[C@H]1C(=O)N[C@@H](CC(N)=O)C(=O)NCC(=O)N1C[C@H](O)C[C@H]1C(N)=O)[C@@H](C)CC)[C@@H](C)O)C(C)C)[C@@H](C)O [compound 170] (H-GCRTGTCTVQRLAHQIYQFTDKDKDNVAPRTNISPNG[Hyp]-NH2; disulfide 2-7) |
| 21.150% | 6 pM | CC[C@H](C)[C@H](NC(=O)[C@H](CC(N)=O)NC(=O)[C@@H](NC(=O)[C@H](CCCNC(=N)N)NC(=O)[C@@H]1CCCN1C(=O)[C@H](C)NC(=O)[C@@H](NC(=O)[C@H](CC(N)=O)NC(=O)[C@H](CC(=O)O)NC(=O)[C@H](CCCCN)NC(=O)[C@H](CC(=O)O)NC(=O)[C@H](CCCCN)NC(=O)[C@H](CC(=O)O)NC(=O)[C@@H](NC(=O)[C@H](Cc1ccccc1)NC(=O)[C@H](CCC(N)=O)NC(=O)[C@H](Cc1ccc(O)cc1)NC(=O)[C@@H](NC(=O)[C@H](CCC(N)=O)NC(=O)[C@H](Cc1c[nH]cn1)NC(=O)[C@H](C)NC(=O)[C@H](CC(C)C)NC(=O)[C@H](Cc1c[nH]c2ccccc12)NC(=O)[C@H](CCC(N)=O)NC(=O)[C@@H](NC(=O)[C@@H](NC(=O)[C@@H]1CSSC[C@H](NC(=O)CN)C(=O)N[C@@H](CCCNC(=N)N)C(=O)N[C@@H](Cc2ccccc2)C(=O)NCC(=O)N[C@@H]([C@@H](C)O)C(=O)N1)[C@@H](C)O)C(C)C)[C@@H](C)CC)[C@@H](C)O)C(C)C)[C@@H](C)O)C(=O)NCC(=O)N1CCC[C@H]1C(=O)N[C@@H](CC(N)=O)C(=O)NCC(=O)N1C[C@H](O)C[C@H]1C(N)=O [compound 331] (H-GCRFGTCTVQWLAHQIYQFTDKDKDNVAPRTNIGPNG[Hyp]-NH2; disulfide 2-7; N-terminus assumed) |
| 13.350% | 11 pM | CC[C@H](C)[C@H](NC(=O)[C@H](CCC(N)=O)NC(=O)[C@H](Cc1c[nH]cn1)NC(=O)[C@H](C)NC(=O)[C@H](CC(C)C)NC(=O)[C@H](CCCNC(N)=O)NC(=O)[C@H](CCC(N)=O)NC(=O)[C@@H](NC(=O)[C@@H](NC(=O)[C@@H]1CSSC[C@H](NC(=O)CN)C(=O)N[C@@H](CCCNC(=N)N)C(=O)N[C@@H](Cc2ccccc2)C(=O)NCC(=O)N[C@@H]([C@@H](C)O)C(=O)N1)[C@@H](C)O)C(C)C)C(=O)N[C@@H](Cc1ccc(O)cc1)C(=O)N[C@@H](CCC(N)=O)C(=O)N[C@@H](Cc1ccccc1)C(=O)N[C@H](C(=O)N[C@@H](CC(=O)O)C(=O)N[C@@H](CCCCN)C(=O)N[C@@H](CC(=O)O)C(=O)N[C@@H](CCCCN)C(=O)N[C@@H](CC(=O)O)C(=O)N[C@@H](CC(N)=O)C(=O)N[C@H](C(=O)N[C@@H](C)C(=O)N1CCC[C@H]1C(=O)N[C@@H](CCCNC(=N)N)C(=O)N[C@H](C(=O)N[C@@H](CC(N)=O)C(=O)N[C@H](C(=O)N[C@@H](CO)C(=O)N1CCC[C@H]1C(=O)N[C@@H](CCC(N)=O)C(=O)NCC(=O)N[C@@H](Cc1ccc(O)cc1)C(N)=O)C(C)C)[C@@H](C)O)C(C)C)[C@@H](C)O [compound 278] (H-GCRFGTCTVQ[Cit]LAHQIYQFTDKDKDNVAPRTNVSPQGY-NH2; disulfide 2-7; N-terminus assumed) |
| 5.200% | 31 pM | CC[C@H](C)[C@H](NC(=O)[C@H](CCC(N)=O)NC(=O)[C@H](Cc1c[nH]cn1)NC(=O)[C@H](C)NC(=O)[C@H](CC(C)C)NC(=O)[C@H](CCCNC(=N)N)NC(=O)[C@H](CCC(N)=O)NC(=O)[C@@H](NC(=O)[C@@H](NC(=O)[C@@H]1CSSC[C@H](NC(=O)CN)C(=O)N[C@@H](CCCNC(=N)N)C(=O)N[C@@H](Cc2ccccc2)C(=O)NCC(=O)N[C@@H]([C@@H](C)O)C(=O)N1)[C@@H](C)O)C(C)C)C(=O)N[C@@H](Cc1ccc(O)cc1)C(=O)N[C@@H](CCC(N)=O)C(=O)N[C@@H](Cc1ccccc1)C(=O)N[C@H](C(=O)N[C@@H](CC(=O)O)C(=O)N[C@@H](CCCCN)C(=O)N[C@@H](CC(=O)O)C(=O)N[C@@H](CCCCN)C(=O)N[C@@H](CC(=O)O)C(=O)N[C@@H](CC(N)=O)C(=O)N[C@H](C(=O)N[C@@H](C)C(=O)N1CCC[C@H]1C(=O)N[C@@H](CCCNC(=N)N)C(=O)N[C@H](C(=O)N[C@@H](CCCCN)C(=O)N[C@H](C(=O)N[C@@H](CO)C(=O)N1CCC[C@H]1C(=O)N[C@@H](CCC(N)=O)C(=O)NCC(=O)N1C[C@H](O)C[C@H]1C(N)=O)C(C)C)[C@@H](C)O)C(C)C)[C@@H](C)O [compound 132] (H-GCRFGTCTVQRLAHQIYQFTDKDKDNVAPRTKVSPQG[Hyp]-NH2; disulfide 2-7; N-terminus assumed) |
